The test system of one test is 2008 tumor xenografts. In words: Effect of EGF on cisplatin toxicity against tumor xenografts in athymic mice. The format is in vivo, athymic mice (nu/nu). The method, then: For these studies, 3 to 4 week old female athymic mice (nu/nu) from BALB/c origin were used which were supplied by Harlan Sprague Dawley, Inc. (Indianapolis, Ind.). The mice were kept in a laminar flow hood at 28° C. and fed standard mouse diet and water ad libitum.
Tumor xenografts were established from 2008 cells by harvesting confluent cell cultures by trypsinization and resuspending the cells in RPMI 1640 medium at 2.5×10^7 cells per ml. From this suspension, 0.2 ml aliquots containing 5×10^6 cells were injected s.c. on each shoulder of the athymic mice. In each mouse, two tumors were followed and tumor volumes were determined using the formula (length×width^2)/2 (Giavazzi et al., Cancer Res. 46:1928 (1986) and Tomayko & Reynolds Cancer Chemother. Pharmacol. 24:148 (1989)).
In all groups, treatment was administered 24 hours after the inoculation with tumor cells.
Tumor growth of each tumor in each animal was expressed as plot of in(tumor volume) as a function of time. The regression line of the in(tumor volume) versus time plot was calculated by using the method of least squares. The intercept and slope were obtained and used to calculate the time each tumor required to reach an arbitrarily defined volume of 1 ml. This volume was chosen because most tumors in all treatment groups reached this endpoint. For comparisons between two groups the unpaired Student's T-test was used. […]

Test [1] has as its system 2008 human ovarian carcinoma cells. Put plainly: Colony forming assay, effect of EGF on sensitivity to cytotoxic agents. Type of test: cell-based.
The test system of the next test is 2008/C13*5 cells. In words: Cellular accumulation of DDP. The conditions noted are these: medium alone, end of a 1-h incubation. Type of test: cell-based, human. As for the experimental part:
(§1) Cell-associated ^195m Pt was determined by as a measure of DDP accumulation. For DDP accumulation studies, subconfluent monolayers were treated with 37° C. RPMI 1640 medium containing 20 μM [^195m Pt]-DDD. The dishes were immediately returned to the incubater. After 1 h incubation, the medium was aspirated, the cells were washed rapidly with 4° C. PBS 4 times. Two ml of 1N NaOH was added and the cells allowed to digest overnight. A forty μl aliquot was used for determination of protein content by the method of Bradford (Bradford, Anal. Biochem. 72:248-254 (1976)), and the remaining […] was counted in glass tubes on a Trak 1191 gamma counter (Tracer Analytic, EIK Grove Village, Ill.). Columns represent the mean values of 3 experiments performed with duplicate cultures. The bars represent the standard deviation.
The 2008/C13*5 cell line is 8-10-fold resistant to DDP. […] C13*5 cells were treated with appropriate concentration of DDP in the presence (.circle-solid.) or absence (0) of 10^-7 M TPA for 1 h. Drug cytotoxicity was determined by colonogenic assay on plastic dishes. Each point represents the mean values of 3 experiments performed with triplicate cultures. The bars represent the standard deviation. […] This 2.6-fold sensitization was nearly identical with the 2.5 fold sensitization observed in the DDP-sensitive 2008 cells. […]

The test system of test [2] is 2008 cells. In words: Colony forming (colonogenic) assay, effect of TPA, phorbol and staurosporine on DDP sensitivity.
The subject of test [3] is 2008 cells. Put plainly: Cellular accumulation of [195mPt]DDP. The format is cell-based, human. The note with it: 60 min. As for the experimental part:
as §1
Cultured 2008 cells were treated concurrently with [^195m Pt]DDP and TPA for 60 min. A vehicle control consisting of an appropriate dilution of acetone was run concurrently. […] Cells treated with medium alone contained 140±13 pmol/mg of protein, whereas those treated with the acetone control contained 141±7 pmol/mg of protein, and those treated with TPA contained 143±21 pmol/mg of protein.

SMILES strings stand for the structures. Read-outs that look alike come from different tables or passages of the source.

With `N.N.[Cl][Pt][Cl]` [cisplatin], the final tumor volume result in the test with 2008 tumor xenografts (1 mg/kg EGF s.c. and/or 15 mg/kg cisplatin i.p., 24 hours after inoculation) is “significantly reduced relative to control tumors”. Besides, the “additional time required for tumors to reach a volume of 1 ml vs control tumors” value in the test on 2008 tumor xenografts (15 mg/kg cisplatin i.p.) was 6 days. Besides, the “effect of EGF on sensitivity of 2008 cells to the agent (in words)” value in test [1] (EGF and the cytotoxic agent concurrently for 1 h) is reported as “significant increase in sensitivity”. Moreover, in test [1] (Table 3, ratio of IC50 in control and EGF-treated cells), the Dose modifying factor was determined as 2.7. The IC50 was 2450 nM in test [1] (read-out: IC50 in absence of EGF, Table 3, cisplatin 1 h, no EGF); 2800 nM in test [1] (read-out: IC50 in absence of EGF, cytotoxic agent for 1 h, no EGF); 900 nM in test [1] (read-out: IC50 in presence of EGF, EGF and the cytotoxic agent concurrently for 1 h); 910 nM in test [1] (read-out: IC50 in presence of EGF, Table 3, 10 nM EGF and cisplatin concurrently for 1 h). For the same molecule, the DDP accumulated with 2008/C13*5 cells was 37.0±3 pmol/mg of protein. In the test on 2008 cells [2] (2 μM DDP in the absence of TPA (FIG. 6)), the colony survival result was “approximately 80%”. Further, the “survival, % of control” value in the test with 2008 cells [2] (DDP (2 μM) alone) was 85±5%. Besides, the results for the “cellular accumulation of [195mPt]DDP” value in the test on 2008 cells [3] (medium alone) and in the test with 2008 cells [3] (treated concurrently with TPA) were 140±13 pmol/mg of protein and 143±21 pmol/mg of protein, respectively.

The values above are taken from patent US5597798A, “Taxol and epidermal growth factor used to enhance treatment of ovarian cancer” (The Regents of the University of California, priority 1994, dated 1997).
